Data set [1] has as its system Staphylococcus aureus. Description: Antibacterial activity against methicillin-susceptible Staphylococcus aureus SH1000 incubated for 72 hrs. The class given is functional. Conditions: SH1000, 72 h.
Another data set concerns Enterococcus faecalis. Description: Antibacterial activity against Enterococcus faecalis OG1RF incubated for 72 hrs. The class given is functional.
A further data set concerns Escherichia coli. Description: Antibacterial activity against Escherichia coli MC4100 incubated for 72 hrs. Conditions: str. K-12 substr. MC4100, 72 h. The class given is functional.
The next data set deals with Pseudomonas aeruginosa. Description: Antibacterial activity against Pseudomonas aeruginosa PAO1 incubated for 72 hrs. The class given is functional. Conditions: PAO1, 72 h.
Data set [2] relates to Staphylococcus aureus. Description: Antibacterial activity against community acquired methicillin-resistant Staphylococcus aureus USA300-0114 incubated for 72 hrs. The class given is functional. The note with it: USA300-0114, 72 h.
Data set [3] concerns Staphylococcus aureus. Kind of data set: Antibacterial activity against hospital-acquired methicillin-resistant Staphylococcus aureus ATCC 33592 incubated for 72 hrs. The class given is functional. Conditions: ATCC 33592, 72 h.
Data set [4] is described as follows: Stability of the compound in pure water by LCMS method. The class given is physicochemical.

Where only a bound is given, the exact number is not on record here.

On to `CCCCCCCCCOC(=O)C[N+](C)(C)CC[N+](C)(C)CC(=O)OCCCCCCCCC.[Br-].[Br-]`, for which the MIC (as a rule, the lowest concentration that inhibits growth of the organism) turned out to be 2 µM in the data set on Staphylococcus aureus [1]; 16 µM in the data set with Enterococcus faecalis; 16 µM against Escherichia coli; 32 µM against Pseudomonas aeruginosa; 4 µM against Staphylococcus aureus [2]; 8 µM against Staphylococcus aureus [3]. For the same compound, the Stability entry in data set [4] was “Stable”.
For the compound `CCCCCCCCCCCCCCOC(=O)C[N+](C)(C)CC[N+](C)(C)CC(=O)OCCCCCCCCCCCCCC.[Br-].[Br-]`, the MIC against Staphylococcus aureus [1] was 16 µM; with Enterococcus faecalis, 32 µM; in the data set on Escherichia coli, 250 µM; in the data set with Pseudomonas aeruginosa it was above 250 µM; in the data set on Staphylococcus aureus [2] it was 16 µM; in the data set on Staphylococcus aureus [3] it was 32 µM. In addition, the Stability entry in data set [4] was “Stable”.
On to `CCCCCCCCCOC(=O)C[N+](C)(C)CCC[N+](C)(CCC[N+](C)(C)CC(=O)OCCCCCCCCC)CC(=O)OCCCCCCCCC.[Br-].[Br-].[Br-]`, for which the MIC came to 4 µM in the data set on Staphylococcus aureus [1]; 16 µM in the data set with Enterococcus faecalis; 8 µM in the data set on Escherichia coli; 32 µM against Pseudomonas aeruginosa; 8 µM against Staphylococcus aureus [2]; 8 µM in the data set with Staphylococcus aureus [3]. Further, the Stability entry in data set [4] is listed as “Stable”.
As to `CCCCCCCOC(=O)C[N+](C)(C)Cc1ccccc1.[Br-]`, the minimal inhibitory concentration (MIC) in the data set on Staphylococcus aureus [1], in the data set on Enterococcus faecalis, against Escherichia coli, in the data set with Pseudomonas aeruginosa, against Staphylococcus aureus [2] and against Staphylococcus aureus [3] was above 250 µM throughout. Also, in data set [4], the Stability result is “Stable”.
On to `CCCCCCCCCOC(=O)C[N+](C)(C)CCCN(CCC[N+](C)(C)CC(=O)OCCCCCCCCC)CCC[N+](C)(C)CC(=O)OCCCCCCCCC.[Br-].[Br-].[Br-]`, for which the MIC is 2 µM with Staphylococcus aureus [1]; 8 µM in the data set with Enterococcus faecalis; 4 µM against Escherichia coli; 16 µM in the data set with Pseudomonas aeruginosa; 4 µM against Staphylococcus aureus [2]; 4 µM against Staphylococcus aureus [3]. The Stability result in data set [4] is listed as “Stable”.
For `CCCCCCCCCCOC(=O)C[N+](C)(C)Cc1ccccc1.[Br-]`, the minimal inhibitory concentration (MIC) was 32 µM with Staphylococcus aureus [1]; 32 µM in the data set on Enterococcus faecalis; 63 µM with Escherichia coli; above 250 µM in the data set with Pseudomonas aeruginosa; 16 µM against Staphylococcus aureus [2]; 32 µM against Staphylococcus aureus [3]. Further, the Stability result in data set [4] is “Stable”.
As to `CCCCCCCCOC(=O)C[N+](C)(C)CC[N+](C)(C)CC(=O)OCCCCCCCC.[Br-].[Br-]`, the minimal inhibitory concentration (MIC) turned out to be 32 µM in the data set on Staphylococcus aureus [1]; 63 µM in the data set on Enterococcus faecalis; 63 µM against Escherichia coli; 125 µM in the data set on Pseudomonas aeruginosa; 16 µM in the data set with Staphylococcus aureus [2]; 32 µM in the data set with Staphylococcus aureus [3]. For the same compound, the Stability result in data set [4] is reported as “Stable”.
Regarding `CCCCCCCCOC(=O)C[N+](C)(C)CCC[N+](C)(CCC[N+](C)(C)CC(=O)OCCCCCCCC)CC(=O)OCCCCCCCC.[Br-].[Br-].[Br-]`, the MIC came out at 8 µM against Staphylococcus aureus [1]; 16 µM with Enterococcus faecalis; 16 µM against Escherichia coli; 32 µM against Pseudomonas aeruginosa; 8 µM against Staphylococcus aureus [2]; 8 µM in the data set on Staphylococcus aureus [3]. Also, the Stability result in data set [4] is “Stable”.
Consider `CCCCCCCCOC(=O)C[N+](C)(C)CCN1CC[N+](C)(CC(=O)OCCCCCCCC)CC1.[Br-].[Br-]`, for which the minimal inhibitory concentration (MIC) is above 250 µM with Staphylococcus aureus [1]; 63 µM against Enterococcus faecalis; 250 µM in the data set on Escherichia coli; above 250 µM against Pseudomonas aeruginosa; 32 µM in the data set on Staphylococcus aureus [2]; 63 µM with Staphylococcus aureus [3]. Moreover, the Stability entry in data set [4] is given as “Stable”.
For `CCCCCCOC(=O)C[N+](C)(C)Cc1ccccc1.[Br-]`, the minimal inhibitory concentration (MIC) with Staphylococcus aureus [1], with Enterococcus faecalis, with Escherichia coli, with Pseudomonas aeruginosa, with Staphylococcus aureus [2] and with Staphylococcus aureus [3] was above 250 µM throughout. In addition, the Stability entry in data set [4] is recorded as “Stable”.
For `CCCCCCOC(=O)C[N+](C)(C)CCC[N+](C)(CCC[N+](C)(C)CC(=O)OCCCCCC)CC(=O)OCCCCCC.[Br-].[Br-].[Br-]`, the MIC is 250 µM in the data set with Staphylococcus aureus [1]; 250 µM in the data set with Enterococcus faecalis; above 250 µM in the data set with Escherichia coli; above 250 µM with Pseudomonas aeruginosa; 125 µM in the data set on Staphylococcus aureus [2]; 250 µM with Staphylococcus aureus [3]. For the same compound, the Stability result in data set [4] was “Stable”.
As for `CCCCCCCCOC(=O)C[N+](C)(C)Cc1ccccc1.[Br-]`, the minimum inhibitory concentration (MIC) against Staphylococcus aureus [1] was 125 µM; against Enterococcus faecalis it was 250 µM; against Escherichia coli, 250 µM; in the data set on Pseudomonas aeruginosa it was above 250 µM; against Staphylococcus aureus [2], 250 µM; with Staphylococcus aureus [3], 125 µM. In data set [4], the Stability entry is listed as “Stable”.
Turning to `CCCCCCCCCCOC(=O)C[N+](C)(C)CC[N+](C)(C)CC(=O)OCCCCCCCCCC.[Br-].[Br-]`, the MIC in the data set on Staphylococcus aureus [1] was 4 µM; in the data set with Enterococcus faecalis, 16 µM; in the data set on Escherichia coli, 8 µM; in the data set on Pseudomonas aeruginosa it was 32 µM; in the data set with Staphylococcus aureus [2] it was 8 µM; in the data set on Staphylococcus aureus [3], 8 µM. For the same compound, the Stability entry in data set [4] is listed as “Stable”.
As for `CCCCCCOC(=O)C[N+](C)(C)CC[N+](C)(C)CC(=O)OCCCCCC.[Br-].[Br-]`, the MIC is above 250 µM in the data set on Staphylococcus aureus [1]; above 250 µM in the data set with Enterococcus faecalis; above 250 µM in the data set on Escherichia coli; above 250 µM in the data set on Pseudomonas aeruginosa; 250 µM in the data set on Staphylococcus aureus [2]; above 250 µM with Staphylococcus aureus [3]. Also, the Stability result in data set [4] was “Stable”.
`CCCCCCCCCCCCOC(=O)C[N+](C)(C)CCCN(CCC[N+](C)(C)CC(=O)OCCCCCCCCCCCC)CCC[N+](C)(C)CC(=O)OCCCCCCCCCCCC.[Br-].[Br-].[Br-]`: the MIC in the data set with Staphylococcus aureus [1] was 4 µM; in the data set on Enterococcus faecalis, 8 µM; against Escherichia coli it was 8 µM; against Pseudomonas aeruginosa, above 250 µM; in the data set on Staphylococcus aureus [2] it was 8 µM; with Staphylococcus aureus [3] it was 8 µM. The Stability result in data set [4] was “Stable”.
`CCCCCCCCCCCCOC(=O)C[N+](C)(C)CC[N+](C)(C)CC(=O)OCCCCCCCCCCCC.[Br-].[Br-]`: the MIC was found to be 16 µM against Staphylococcus aureus [1]; 32 µM with Enterococcus faecalis; 63 µM against Escherichia coli; 125 µM against Pseudomonas aeruginosa; 16 µM in the data set on Staphylococcus aureus [2]; 32 µM with Staphylococcus aureus [3]. In data set [4], the Stability entry is given as “Stable”.
`CCCCCCCOC(=O)C[N+](C)(C)CCCN(CCC[N+](C)(C)CC(=O)OCCCCCCC)CCC[N+](C)(C)CC(=O)OCCCCCCC.[Br-].[Br-].[Br-]`: the minimum inhibitory concentration (MIC) in the data set with Staphylococcus aureus [1] was 16 µM; in the data set with Enterococcus faecalis, 32 µM; with Escherichia coli, 63 µM; in the data set with Pseudomonas aeruginosa, above 250 µM; against Staphylococcus aureus [2], 8 µM; against Staphylococcus aureus [3], 32 µM. For the same compound, the Stability result in data set [4] was “Stable”.
Take `CCCCCCCCCCCCOC(=O)C[N+](C)(C)CCN1CC[N+](C)(CC(=O)OCCCCCCCCCCCC)CC1.[Br-].[Br-]`: the minimum inhibitory concentration (MIC) was 8 µM against Staphylococcus aureus [1]; 32 µM against Enterococcus faecalis; 16 µM against Escherichia coli; 32 µM against Pseudomonas aeruginosa; 8 µM with Staphylococcus aureus [2]; 8 µM in the data set on Staphylococcus aureus [3]. Besides, in data set [4], the Stability result was “Stable”.
In the case of `CCCCCCCOC(=O)C[N+](C)(C)CCC[N+](C)(CCC[N+](C)(C)CC(=O)OCCCCCCC)CC(=O)OCCCCCCC.[Br-].[Br-].[Br-]`, the MIC turned out to be 32 µM with Staphylococcus aureus [1]; 32 µM against Enterococcus faecalis; 125 µM with Escherichia coli; 125 µM against Pseudomonas aeruginosa; 16 µM in the data set with Staphylococcus aureus [2]; 32 µM in the data set on Staphylococcus aureus [3]. In addition, in data set [4], the Stability entry is recorded as “Stable”.
As for `CCCCCCCCCOC(=O)C[N+](C)(C)CCN1CC[N+](C)(CC(=O)OCCCCCCCCC)CC1.[Br-].[Br-]`, the MIC against Staphylococcus aureus [1] is 4 µM; against Enterococcus faecalis it was 8 µM; in the data set on Escherichia coli, 16 µM; with Pseudomonas aeruginosa it was 125 µM; in the data set on Staphylococcus aureus [2], 4 µM; with Staphylococcus aureus [3], 4 µM. Further, the Stability result in data set [4] was “Stable”.
`CCCCCCCCCCNC(=O)C[N+](C)(C)CCC[N+](C)(CCC[N+](C)(C)CC(=O)NCCCCCCCCCC)CC(=O)NCCCCCCCCCC.[Br-].[Br-].[Br-]`: the minimal inhibitory concentration (MIC) with Staphylococcus aureus [1] stood at 1 µM; in the data set with Enterococcus faecalis, 2 µM; in the data set with Escherichia coli it was 2 µM; in the data set on Pseudomonas aeruginosa, 63 µM; in the data set on Staphylococcus aureus [2], 1 µM; with Staphylococcus aureus [3], 2 µM. Further, in data set [4], the Stability entry was “Stable”.
As for `CCCCCCCOC(=O)C[N+](C)(C)CC[N+](C)(C)CC(=O)OCCCCCCC.[Br-].[Br-]`, the minimal inhibitory concentration (MIC) in the data set with Staphylococcus aureus [1] is 250 µM; in the data set with Enterococcus faecalis, above 250 µM; in the data set on Escherichia coli, above 250 µM; in the data set on Pseudomonas aeruginosa, above 250 µM; in the data set on Staphylococcus aureus [2], 125 µM; against Staphylococcus aureus [3], 250 µM. In addition, the Stability entry in data set [4] is “Stable”.
Take `CCCCCCCCCCCCOC(=O)C[N+](C)(C)CCC[N+](C)(CCC[N+](C)(C)CC(=O)OCCCCCCCCCCCC)CC(=O)OCCCCCCCCCCCC.[Br-].[Br-].[Br-]`: the minimal inhibitory concentration (MIC) with Staphylococcus aureus [1] is 4 µM; in the data set on Enterococcus faecalis it was 8 µM; against Escherichia coli it was 8 µM; against Pseudomonas aeruginosa it was 16 µM; against Staphylococcus aureus [2] it was 8 µM; with Staphylococcus aureus [3], 8 µM. The Stability result in data set [4] is on record as “Stable”.
On to `CCCCCCCOC(=O)C[N+](C)(C)CCN1CC[N+](C)(CC(=O)OCCCCCCC)CC1.[Br-].[Br-]`, for which the MIC with Staphylococcus aureus [1] was above 250 µM; with Enterococcus faecalis, above 250 µM; in the data set on Escherichia coli it was above 250 µM; against Pseudomonas aeruginosa it was above 250 µM; in the data set with Staphylococcus aureus [2], 250 µM; in the data set with Staphylococcus aureus [3], above 250 µM. Besides, the Stability result in data set [4] is “Stable”.
Consider `CCCCCCCCCCNC(=O)C[N+](C)(C)Cc1ccccc1.[Br-]`, for which the MIC against Staphylococcus aureus [1] stood at 8 µM; in the data set with Enterococcus faecalis, 16 µM; in the data set with Escherichia coli it was 32 µM; in the data set on Pseudomonas aeruginosa it was 125 µM; against Staphylococcus aureus [2], 8 µM; in the data set on Staphylococcus aureus [3], 8 µM. Further, the Stability entry in data set [4] is reported as “Stable”.

The values are drawn from ChEMBL document CHEMBL4038298, “Ester- and amide-containing multiQACs: Exploring multicationic soft antimicrobial agents” (Bioorg Med Chem Lett, 2017).
